For assay [1], the system named is genotype 1b-Con1 subgenomic replicon cell line. The assay can be described thus: microbe, parasite or virus in culture. In kind it is cell-based, HCV. To be noted: Hepatitis C virus, read-out: EC50 1b.
In assay [2] the target is T1, HCV polymerase 1A (Δ21 NS5B, H77) (Hepatitis C virus genotype 1a, UniProt P27958).
T1 construct: 20 to 50 nM Δ21 NS5B
The assay can be described thus: biochemical. The note with it: IC50 1a. Summed up:
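Radiometric assay with Δ21 NS5B (H77): 20 μM CTP, 20 μM ATP, 1 μM ^3H-UTP, 5 nM template RNA, 2–4 h at room temperature. RNA precipitated with spermine, filter-captured and counted. IC50 from non-linear fit of retained cpm vs inhibitor concentration (tight-binding equation).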

The target of assay [3] is T2, HCV polymerase 1B (Δ21 NS5B, BK) (Hepatitis C virus genotype 1b, UniProt P26663).
T2 construct: 20 to 50 nM Δ21 NS5B
T2 sequence (P26663 2420-2989, stated change not applied): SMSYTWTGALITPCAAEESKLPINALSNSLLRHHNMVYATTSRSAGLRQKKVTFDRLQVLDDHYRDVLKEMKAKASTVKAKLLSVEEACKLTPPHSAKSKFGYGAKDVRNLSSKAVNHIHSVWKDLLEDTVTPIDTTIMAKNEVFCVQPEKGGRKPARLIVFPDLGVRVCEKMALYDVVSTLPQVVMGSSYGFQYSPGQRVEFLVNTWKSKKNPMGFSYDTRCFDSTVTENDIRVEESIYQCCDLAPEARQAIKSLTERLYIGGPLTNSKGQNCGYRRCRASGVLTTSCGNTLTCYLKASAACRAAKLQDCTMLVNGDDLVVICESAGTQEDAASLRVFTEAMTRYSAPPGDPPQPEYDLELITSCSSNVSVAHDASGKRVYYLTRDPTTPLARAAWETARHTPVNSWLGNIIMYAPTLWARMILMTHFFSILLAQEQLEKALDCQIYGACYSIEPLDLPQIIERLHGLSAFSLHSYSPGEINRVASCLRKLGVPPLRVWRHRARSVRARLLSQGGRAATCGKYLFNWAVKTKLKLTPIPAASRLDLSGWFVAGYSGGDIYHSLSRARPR
As to the kind of experiment: biochemical. Summed up: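 Δ21 NS5B (genotype 1b, BK […]) preincubated 15 min RT with inhibitor, 2 mM MnCl2, pH 7.4, 60–125 μM GTP; started with 20 μM CTP/ATP, 1 μM 3H-UTP, 5 nM template RNA, run 2–4 h RT. Spermine-precipitated RNA filter-captured, scintillation counted; IC50 from tight-binding (Morrison) fit.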

The test system of assay [4] is genotype 1a-H77 subgenomic replicon cell line. The assay can be described thus: microbe, parasite or virus in culture. To be noted: Hepatitis C virus, read-out: EC50 1a. In kind it is cell-based, HCV.

SMILES strings stand for the structures.

T1 sequence (P27958 2421-2990, stated change not applied): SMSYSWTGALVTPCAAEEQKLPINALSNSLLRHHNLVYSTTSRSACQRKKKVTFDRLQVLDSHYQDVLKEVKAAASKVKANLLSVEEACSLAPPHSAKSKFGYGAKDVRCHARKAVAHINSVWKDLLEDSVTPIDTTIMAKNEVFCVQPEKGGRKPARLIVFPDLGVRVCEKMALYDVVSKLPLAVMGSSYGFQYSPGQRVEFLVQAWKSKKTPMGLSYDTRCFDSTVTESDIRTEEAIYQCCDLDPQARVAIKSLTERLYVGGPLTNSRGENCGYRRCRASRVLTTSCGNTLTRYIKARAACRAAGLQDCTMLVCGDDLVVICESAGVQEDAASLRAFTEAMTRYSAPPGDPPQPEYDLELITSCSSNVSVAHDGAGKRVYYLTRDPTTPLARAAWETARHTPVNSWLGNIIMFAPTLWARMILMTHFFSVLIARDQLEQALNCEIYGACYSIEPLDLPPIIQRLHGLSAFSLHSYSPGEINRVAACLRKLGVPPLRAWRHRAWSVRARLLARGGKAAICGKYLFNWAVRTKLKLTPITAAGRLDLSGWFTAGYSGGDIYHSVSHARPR

By EC50 is commonly meant the concentration at which the effect is half-maximal. Usually IC50 stands for the concentration that inhibits the measured activity by half. Read a low IC50 as inhibition by little substance. As to `CCNC(=O)CN1C(=O)CCN(c2cc(C(=O)Nc3ccc(N(CC(=O)NCC)S(C)(=O)=O)cc3)c(OC)c(C(C)(C)C)c2)C1=O` [IA-L3-1.115, 3-tert-butyl-5-(3-(2-(ethylamino)-2-oxoethyl)-2,4-dioxotetrahydropyrimidin-1(2H)-yl)-N-(4-(N-(2-(ethylamino)-2-oxoethyl)methylsulfonamido)phenyl)-2-methoxybenzamide], the EC50 in assay [1] and in assay [4] was greater than 1000 nM each time. Also, the IC50 in assay [2] and in assay [3] was greater than 1000 nM throughout.

For `COc1c(C#Cc2ccc(NS(C)(=O)=O)c(C(F)(F)F)c2)cc(N2CCC(=O)NC2=O)cc1C(C)(C)C` [IA-L2-1.19, N-(4-((3-tert-butyl-5-(2,4-dioxotetrahydropyrimidin-1(2H)-yl)-2-methoxyphenyl)ethynyl)-2-(trifluoromethyl)phenyl)methanesulfonamide], the EC50 in assay [1] and in assay [4] was greater than 1000 nM each time. Moreover, the IC50 in assay [2] fell in the range of 100 to 1000 nM; in assay [3], 10 to 100 nM.

Take `COc1c(NC(=O)c2ccccc2)cc(N2CCC(=O)NC2=O)cc1C(C)(C)C` [IA-L4-1.8, N-(3-tert-butyl-5-(2,4-dioxotetrahydropyrimidin-1(2H)-yl)-2-methoxyphenyl)benzamide]: the results for the EC50 in assay [1] and in assay [4] were 100 to 1000 nM and greater than 1000 nM, respectively. Also, the figures for the IC50 in assay [2] and in assay [3] were greater than 1000 nM and 100 to 1000 nM, respectively.

For the molecule `COc1c(C(=O)Nc2cc(CNS(C)(=O)=O)cs2)cc(N2CCC(=O)NC2=O)cc1C(C)(C)C` [IA-L3-1.94, 3-tert-butyl-5-(2,4-dioxotetrahydropyrimidin-1(2H)-yl)-2-methoxy-N-(4-(methylsulfonamidomethyl)thiophen-2-yl)benzamide], the EC50 in assay [1] was 100 to 1000 nM; in assay [4], greater than 1000 nM. Further, the IC50 in assay [2] and in assay [3] was 100 to 1000 nM each time.

For `COc1c(C(=O)Nc2ccc(NS(C)(=O)=O)cc2C)cc(N2CCC(=O)NC2=O)cc1C(C)(C)C` [IA-L3-1.83, 3-tert-butyl-5-(2,4-dioxotetrahydropyrimidin-1(2H)-yl)-2-methoxy-N-(2-methyl-4-(methylsulfonamido)phenyl)benzamide], the EC50 in assay [1] and in assay [4] was 100 to 1000 nM each time. Besides, the IC50 was in the range of 10 to 100 nM in assay [2] and 100 to 1000 nM in assay [3].

Consider `COc1c(C#Cc2ccc(NS(C)(=O)=O)nc2)cc(N2CCC(=O)NC2=O)cc1C(C)(C)C` [IA-L2-1.26, N-(5-((3-tert-butyl-5-(2,4-dioxotetrahydropyrimidin-1(2H)-yl)-2-methoxyphenyl)ethynyl)-pyridin-2-yl)methanesulfonamide 2,2,2-trifluoroacetate], for which the concentration for a half-maximal effect (EC50) in assay [1] and in assay [4] was 10 to 100 nM throughout. In addition, the IC50 in assay [2] and in assay [3] was 10 to 100 nM in each case.

On to `COc1ccc(-c2cc(-n3ccc(=O)[nH]c3=O)cc(C(C)(C)C)c2OC)cc1/C=N/NS(C)(=O)=O` [IB-L0-1.6, (E)-N′-((3′-tert-butyl-5′-(2,4-dioxo-3,4-dihydropyrimidin-1(2H)-yl)-2′,4-dimethoxybiphenyl-3-yl)methylene)methanesulfonohydrazide], for which the EC50 in assay [1] is 100 to 1000 nM; in assay [4] it was greater than 1000 nM. Further, the IC50 in assay [2] and in assay [3] was 100 to 1000 nM throughout.

Take `COc1c(C#Cc2ccc(NS(C)(=O)=O)cc2Cl)cc(-n2ccc(=O)[nH]c2=O)cc1C(C)(C)C` [IB-L2-1.2, N-(4-((3-tert-butyl-5-(2,4-dioxo-3,4-dihydropyrimidin-1(2H)-yl)-2-methoxyphenyl)ethynyl)-3-chlorophenyl)methanesulfonamide]: the EC50 in assay [1] was less than 10 nM. Besides, the IC50 in assay [2] is less than 10 nM; in assay [3], 10 to 100 nM.

With `COc1c(C(=O)Nc2ccc(NS(C)(=O)=O)c([N+](=O)[O-])c2)cc(N2CCC(=O)NC2=O)cc1C(C)(C)C` [IA-L3-1.87, 3-tert-butyl-5-(2,4-dioxotetrahydropyrimidin-1(2H)-yl)-2-methoxy-N-(4-(methylsulfonamido)-3-nitrophenyl)benzamide], the EC50 in assay [1] was greater than 1000 nM. Further, the IC50 in assay [2] is greater than 1000 nM; in assay [3] it was 100 to 1000 nM.

Consider `COc1c(C(=O)Nc2ccc(NS(=O)(=O)CCO)cc2)cc(N2CCC(=O)NC2=O)cc1C(C)(C)C` [IA-L3-1.122, 3-tert-butyl-5-(2,4-dioxotetrahydropyrimidin-1(2H)-yl)-N-(4-(2-hydroxyethylsulfonamido)phenyl)-2-methoxybenzamide], for which the EC50 in assay [1] lay in the range of 10 to 100 nM. The IC50 in assay [2] and in assay [3] was 10 to 100 nM each time.

In the case of `CC(C)(C)c1cc(N2CCC(=O)NC2=O)cc(C(=O)Nc2ccc(NS(=O)(=O)CCN3CCOCC3)cc2)c1O` [IA-L3-1.14, 3-tert-butyl-5-(2,4-dioxotetrahydropyrimidin-1(2H)-yl)-2-hydroxy-N-(4-(2-morpholinoethylsulfonamido)phenyl)benzamide], the concentration for a half-maximal effect (EC50) in assay [1] was 100 to 1000 nM. The IC50 is 10 to 100 nM in assay [2] and less than 10 nM in assay [3].

Consider `COc1c(C(=O)Nc2ccc(NS(=O)(=O)CCN(CCO)CCO)cc2)cc(N2CCC(=O)NC2=O)cc1C(C)(C)C` [IA-L3-1.56, N-(4-(2-(bis(2-hydroxyethyl)amino)ethylsulfonamido)phenyl)-3-tert-butyl-5-(2,4-dioxo-tetrahydropyrimidin-1(2H)-yl)-2-methoxybenzamide], for which the EC50 in assay [1] lay within 100 to 1000 nM. The half-maximal inhibitory concentration (IC50) in assay [2] and in assay [3] was 100 to 1000 nM throughout.

With `COc1c(C(=O)Nc2ccc(NS(=O)(=O)CCN3CCOCC3)cc2)cc(N2CCC(=O)NC2=O)cc1C(C)(C)C` [IA-L3-1.58, 3-tert-butyl-5-(2,4-dioxotetrahydropyrimidin-1(2H)-yl)-2-methoxy-N-(4-(2-morpholinoethylsulfonamido)phenyl)benzamide], the EC50 in assay [1] was 100 to 1000 nM. The IC50 in assay [2] and in assay [3] was 100 to 1000 nM each time.

For `COC(=O)c1cc(NS(C)(=O)=O)ccc1C#Cc1cc(-n2ccc(=O)[nH]c2=O)cc(C(C)(C)C)c1OC` [IB-L2-1.7, methyl 2-((3-tert-butyl-5-(2,4-dioxo-3,4-dihydropyrimidin-1(2H)-yl)-2-methoxyphenyl)-ethynyl)-5-(methylsulfonamido)benzoate], the EC50 in assay [1] was less than 10 nM. The IC50 in assay [2] is less than 10 nM; in assay [3], 10 to 100 nM.

Consider `COc1c(C(=O)Nc2ccc(NS(C)(=O)=O)cn2)cc(N2CCC(=O)NC2=O)cc1C(C)(C)C` [IA-L3-1.102, 3-tert-butyl-5-(2,4-dioxotetrahydropyrimidin-1(2H)-yl)-2-methoxy-N-(5-(methylsulfonamido)pyridin-2-yl)benzamide], for which, in assay [1], the EC50 lay in the range of 100 to 1000 nM. The IC50 in assay [2] and in assay [3] was 100 to 1000 nM throughout.

As for `COc1c(NC(=O)c2ccc(NS(C)(=O)=O)cc2)cc(N2CCC(=O)NC2=O)cc1C(C)(C)C` [IA-L4-1.9, N-(3-tert-butyl-5-(2,4-dioxotetrahydropyrimidin-1(2H)-yl)-2-methoxyphenyl)-4-(methylsulfonamido)benzamide], in assay [1], the EC50 was in the range of 10 to 100 nM. For the same molecule, the IC50 in assay [2] and in assay [3] was 10 to 100 nM in each case.

On to `COc1c(C(=O)Nc2ccc(NS(C)(=O)=O)cc2)cc(-n2c(C)cc(=O)[nH]c2=O)cc1C(C)(C)C` [IB-L3-1.3, 3-tert-butyl-2-methoxy-5-(6-methyl-2,4-dioxo-3,4-dihydropyrimidin-1(2H)-yl)-N-(4-(methylsulfonamido)phenyl)benzamide], for which the EC50 in assay [1] is 100 to 1000 nM. The IC50 was 100 to 1000 nM in assay [2] and greater than 1000 nM in assay [3].

As to `COc1c(C(=O)Nc2ccc(NS(C)(=O)=O)cc2)cc(N2CCC(=O)NC2=O)cc1C(C)C` [IA-L3-1.111, 5-(2,4-dioxotetrahydropyrimidin-1(2H)-yl)-3-isopropyl-2-methoxy-N-(4-(methylsulfonamido)phenyl)benzamide], in assay [1], the EC50 fell in the range of 100 to 1000 nM. In addition, the IC50 lay within 10 to 100 nM in assay [2] and 100 to 1000 nM in assay [3].

As to `COc1c(C(=O)Nc2ccc(N)nc2)cc(N2CCC(=O)NC2=O)cc1C(C)(C)C` [IA-L3-1.100, N-(6-aminopyridin-3-yl)-3-tert-butyl-5-(2,4-dioxotetrahydropyrimidin-1(2H)-yl)-2-methoxy benzamide], in assay [1], the EC50 is greater than 1000 nM. Moreover, the IC50 in assay [2] is greater than 1000 nM; in assay [3] it was 100 to 1000 nM.

Regarding `COCCS(=O)(=O)Nc1ccc(NC(=O)c2cc(N3CCC(=O)NC3=O)cc(C(C)(C)C)c2OC)cc1` [IA-L3-1.54, 3-tert-butyl-5-(2,4-dioxotetrahydropyrimidin-1(2H)-yl)-2-methoxy-N-(4-(2-methoxyethylsulfonamido)phenyl)benzamide], the EC50 in assay [1] fell in the range of 10 to 100 nM. Further, the IC50 was in the range of 10 to 100 nM in assay [2] and 100 to 1000 nM in assay [3].

Consider `COc1c(C#Cc2cc(F)c(NS(C)(=O)=O)c(F)c2)cc(-n2ccc(=O)[nH]c2=O)cc1C(C)(C)C` [IB-L2-1.4, N-(4-((3-tert-butyl-5-(2,4-dioxo-3,4-dihydropyrimidin-1(2H)-yl)-2-methoxyphenyl)ethynyl)-2,6-difluorophenyl)methanesulfonamide], for which the EC50 in assay [1] fell in the range of 100 to 1000 nM. The IC50 in assay [2] and in assay [3] was 10 to 100 nM each time.

As for `COc1c(C#Cc2cnc(NS(C)(=O)=O)cn2)cc(-n2ccc(=O)[nH]c2=O)cc1C(C)(C)C` [IB-L2-1.9, N-(5-((3-tert-butyl-5-(2,4-dioxo-3,4-dihydropyrimidin-1(2H)-yl)-2-methoxyphenyl)ethynyl)-pyrazin-2-yl)methanesulfonamide], the results for the IC50 in assay [2] and in assay [3] were 100 to 1000 nM and 10 to 100 nM, respectively. The EC50 in assay [4] is greater than 1000 nM.

The values are drawn from patent US8415351B2 (priority 2007, dated 2013).
